Experimental data published in patent publication US20210070748A1, “INHIBITORS OF BRUTONS TYROSINE KINASE” (Pharmacyclics LLC, priority 2015, published 2021).

How the values were obtained:
TEC = molecular target: T1, TEC (Homo sapiens, UniProt P42680); assay: Inhibition of a panel of kinases, in vitro HotSpot kinase assay: TEC; assay type: biochemical; settings: D-compounds panel data; 1 μM ATP
T1 sequence (P42680 1-631): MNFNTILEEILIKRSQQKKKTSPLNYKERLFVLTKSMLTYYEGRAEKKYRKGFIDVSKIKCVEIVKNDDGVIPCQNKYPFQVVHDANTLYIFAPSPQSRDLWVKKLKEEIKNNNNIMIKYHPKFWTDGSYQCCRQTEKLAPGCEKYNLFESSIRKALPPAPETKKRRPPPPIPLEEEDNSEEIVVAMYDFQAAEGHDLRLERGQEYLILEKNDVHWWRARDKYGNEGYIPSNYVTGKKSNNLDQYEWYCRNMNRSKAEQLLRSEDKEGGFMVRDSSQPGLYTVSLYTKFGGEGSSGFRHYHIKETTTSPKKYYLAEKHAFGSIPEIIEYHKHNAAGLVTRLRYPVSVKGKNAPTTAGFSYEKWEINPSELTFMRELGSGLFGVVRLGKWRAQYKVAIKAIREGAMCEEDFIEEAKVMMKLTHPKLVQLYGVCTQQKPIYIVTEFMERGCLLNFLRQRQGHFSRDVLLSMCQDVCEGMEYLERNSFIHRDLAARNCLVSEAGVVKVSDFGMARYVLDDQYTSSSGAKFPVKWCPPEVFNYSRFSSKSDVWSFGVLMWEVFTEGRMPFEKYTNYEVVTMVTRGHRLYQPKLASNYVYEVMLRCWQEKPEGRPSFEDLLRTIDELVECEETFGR
Experimental: (§1) The degree of inhibition of a panel of kinases is determined using the in vitro HotSpot kinase assay (purified enzymes, ^33P-ATP, an appropriate substrate and 1 μM ATP).

ITK = molecular target: T2, ITK (Homo sapiens, UniProt Q08881); assay: Inhibition of a panel of kinases, in vitro HotSpot kinase assay: ITK; assay type: biochemical; settings: D-compounds panel data; 1 μM ATP
T2 sequence (Q08881 1-620): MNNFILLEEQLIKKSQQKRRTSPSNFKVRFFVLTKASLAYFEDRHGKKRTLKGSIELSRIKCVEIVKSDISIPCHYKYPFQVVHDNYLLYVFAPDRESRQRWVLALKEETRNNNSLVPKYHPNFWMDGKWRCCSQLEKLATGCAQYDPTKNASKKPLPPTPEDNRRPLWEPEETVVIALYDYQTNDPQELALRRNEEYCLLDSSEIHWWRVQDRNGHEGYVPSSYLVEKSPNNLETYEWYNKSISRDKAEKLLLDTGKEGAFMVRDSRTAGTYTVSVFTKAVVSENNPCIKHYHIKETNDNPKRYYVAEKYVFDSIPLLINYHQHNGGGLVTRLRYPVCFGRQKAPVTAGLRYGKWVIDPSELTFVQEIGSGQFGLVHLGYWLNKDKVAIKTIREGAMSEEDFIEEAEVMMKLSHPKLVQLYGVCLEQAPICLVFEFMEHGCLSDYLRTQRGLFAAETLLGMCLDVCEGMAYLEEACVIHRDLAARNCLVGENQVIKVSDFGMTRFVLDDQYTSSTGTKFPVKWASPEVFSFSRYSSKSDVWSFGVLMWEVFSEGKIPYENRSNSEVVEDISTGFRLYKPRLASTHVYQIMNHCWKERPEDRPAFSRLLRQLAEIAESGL
Experimental: as §1

Row | Compound | IC50 (TEC) | IC50 (ITK)
1 | C[C@@H]1C[C@@H](NC(=O)c2ccc(C3CC3)cc2)CN(c2cnc(C(N)=O)c(Nc3cnn(C)c3)n2)C1 [Example D-31, 5-[(3R,5R)-3-(4-cyclopropylbenzamido)-5-methylpiperidin-1-yl]-3-[(1-methyl-1H-pyrazol-4-yl)amino]pyrazine-2-carboxamide] | 0.1 to 1 µM | 1 to 10 µM
2 | C[C@@H]1[C@H](NC(=O)c2ccc(C(C)(C)O)nc2)CCCN1c1cnc(C(N)=O)c(Nc2cnn(C)c2)n1 [Example D-40, 5-[(2R,3R)-3-[6-(2-hydroxypropan-2-yl)pyridine-3-amido]-2-methylpiperidin-1-yl]-3-[(1-methyl-1H-pyrazol-4-yl)amino]pyrazine-2-carboxamide] | ≤ 0.01 µM | 0.1 to 1 µM
3 | Cc1cc(Nc2nc(N3C[C@@H](NC(=O)c4ccc(C5CC5)cc4F)CC[C@@H]3C)cnc2C(N)=O)sn1 [Example D-78, 5-[(2S,5S)-5-(4-cyclopropyl-2-fluorobenzamido)-2-methylpiperidin-1-yl]-3-[(3-methyl-1,2-thiazol-5-yl)amino]pyrazine-2-carboxamide] | 1 to 10 µM | 1 to 10 µM
4 | Cc1cc(Nc2nc(N3C[C@@H](NC(=O)c4ccc(C5CC5)cc4F)CC[C@H]3C)cnc2C(N)=O)sn1 [Example D-80, 5-[(2R,5S)-5-(4-cyclopropyl-2-fluorobenzamido)-2-methylpiperidin-1-yl]-3-[(3-methyl-1,2-thiazol-5-yl)amino]pyrazine-2-carboxamide] | 1 to 10 µM | > 10 µM
5 | C[C@@H]1[C@H](NC(=O)N(C)C)CCCN1c1cnc(C(N)=O)c(Nc2ccc(N3CCN(C)CC3)cc2F)n1 [Example D-52, 5-[(2R,3R)-3-[(dimethylcarbamoyl)amino]-2-methylpiperidin-1-yl]-3-{[2-fluoro-4-(4-methylpiperazin-1-yl)phenyl]amino}pyrazine-2-carboxamide] | 0.1 to 1 µM | 0.1 to 1 µM
6 | Cn1cc(Nc2nc(N3CCC[C@@H]4[C@H]3CCN4C(=O)c3ccc(C4CC4)cc3)cnc2C(N)=O)cn1 [Example D-44, 5-[(3aR,7aR)-1-(4-cyclopropylbenzoyl)-octahydro-1H-pyrrolo[3,2-b]pyridin-4-yl]-3-[(1-methyl-1H-pyrazol-4-yl)amino]pyrazine-2-carboxamide] | 0.1 to 1 µM | > 10 µM
7 | Cc1cc(Nc2nc(N3C[C@@H](NC(=O)N(C)C)CC[C@@H]3C)cnc2C(N)=O)sn1 [Example D-76, 5-[(2S,5S)-5-[(dimethylcarbamoyl)amino]-2-methylpiperidin-1-yl]-3-[(3-methyl-1,2-thiazol-5-yl)amino]pyrazine-2-carboxamide] | 1 to 10 µM | > 10 µM
8 | CC1COc2cc(C(=O)N[C@@H]3CCCN(c4cnc(C(N)=O)c(Nc5cnn(C)c5)n4)[C@@H]3C)ccc2C1 (stereo partly drawn) [Example D-56, 3-[(1-methyl-1H-pyrazol-4-yl)amino]-5-[(2R,3R)-2-methyl-3-(3-methyl-3,4-dihydro-2H-1-benzopyran-7-amido)piperidin-1-yl]pyrazine-2-carboxamide] | ≤ 0.01 µM | 0.1 to 1 µM
9 | Cn1cc(Nc2nc(N3CCC[C@@H](NC(=O)c4ccc(C(C)(C)O)cc4)C3)nnc2C(N)=O)cn1 [Example D-39, 3-[(3R)-3-[4-(2-hydroxypropan-2-yl)benzamido]piperidin-1-yl]-5-[(1-methyl-1H-pyrazol-4-yl)amino]-1,2,4-triazine-6-carboxamide] | 0.01 to 0.1 µM | 0.1 to 1 µM
10 | C[C@@H]1[C@H](NC(=O)c2ccc(N(C)C)cn2)CCCN1c1cnc(C(N)=O)c(Nc2cnn(C)c2)n1 [Example D-84, 5-[(2R,3R)-3-[5-(dimethylamino)pyridine-2-amido]-2-methylpiperidin-1-yl]-3-[(1-methyl-1H-pyrazol-4-yl)amino]pyrazine-2-carboxamide] | ≤ 0.01 µM | 0.1 to 1 µM
11 | Cc1ncc(Nc2nc(N3CCC[C@@H](NC(=O)c4ccc(C5CC5)cc4F)C3)cnc2C(N)=O)s1 [Example D-4, 5-[(3R)-3-(4-cyclopropyl-2-fluorobenzamido)piperidin-1-yl]-3-[(2-methyl-1,3-thiazol-5-yl)amino]pyrazine-2-carboxamide] | 0.1 to 1 µM | 1 to 10 µM
12 | Cn1cc(Nc2nc(N3CCC[C@@H]4[C@H]3CCN4C(=O)c3ccccc3)cnc2C(N)=O)cn1 (racemic) [Example D-54, (racemic)-cis-5-{1-benzoyl-octahydro-1H-pyrrolo[3,2-b]pyridin-4-yl}-3-[(1-methyl-1H-pyrazol-4-yl)amino]pyrazine-2-carboxamide] | 0.1 to 1 µM | 1 to 10 µM
13 | CN1CCN(C(=O)c2ccc(Nc3nc(N[C@H]4CC[C@@H](NC(=O)c5ccc(C6CC6)cc5F)CC4)cnc3C(N)=O)cc2)CC1 [Example D-71, 3-{[4-(4-methylpiperazine-1-carbonyl)phenyl]amino}-5-{[(1 s,4s)-4-(4-cyclopropyl-2-fluorobenzamido)cyclohexyl]amino}pyrazine-2-carboxamide] | 0.1 to 1 µM | 1 to 10 µM
14 | C[C@@H]1[C@H](N2CCN(C)C2=O)CCCN1c1cnc(C(N)=O)c(Nc2cnn(C)c2)n1 [Example D-93, 3-[(1-methyl-1H-pyrazol-4-yl)amino]-5-[(2R,3R)-2-methyl-3-(3-methyl-2-oxoimidazolidin-1-yl)piperidin-1-yl]pyrazine-2-carboxamide] | 0.01 to 0.1 µM | 0.1 to 1 µM
15 | C[C@@H]1[C@H](NC(=O)c2cnn(C(C)(C)C)c2)CCCN1c1cnc(C(N)=O)c(Nc2cnn(C)c2)n1 [Example D-57, 5-[(2R,3R)-3-(1-tert-butyl-1H-pyrazole-4-amido)-2-methylpiperidin-1-yl]-3-[(1-methyl-1H-pyrazol-4-yl)amino]pyrazine-2-carboxamide] | 0.01 to 0.1 µM | 0.1 to 1 µM
16 | CC(C)n1ccc(C(=O)N[C@@H]2CCCN(c3cnc(C(N)=O)c(Nc4cnn(C)c4)n3)[C@@H]2C)cc1=O [Example D-35, 3-[(1-methyl-1H-pyrazol-4-yl)amino]-5-[(2R,3R)-2-methyl-3-[2-oxo-1-(propan-2-yl)-1,2-dihydropyridine-4-amido]piperidin-1-yl]pyrazine-2-carboxamide] | 0.01 to 0.1 µM | 1 to 10 µM
17 | C[C@@H]1[C@H](NC(=O)c2ccc(C(F)(F)F)nc2)CCCN1c1cnc(C(N)=O)c(Nc2cnn(C)c2)n1 [Example D-91, 3-[(1-methyl-1H-pyrazol-4-yl)amino]-5-[(2R,3R)-2-methyl-3-[6-(trifluoromethyl)pyridine-3-amido]piperidin-1-yl]pyrazine-2-carboxamide] | 0.01 to 0.1 µM | 0.1 to 1 µM
18 | CN(C)C(=O)N[C@H]1CCCN(c2cnc(C(N)=O)c(Nc3ccc4ncccc4c3)n2)[C@@H]1CO (racemic) [Example D-64, trans 5-[3-[(dimethylcarbamoyl)amino]-2-(hydroxymethyl)piperidin-1-yl]-3-[(quinolin-6-yl)amino]pyrazine-2-carboxamide] | 1 to 10 µM | > 10 µM
19 | C[C@@H]1[C@H](N2Cc3cc(Br)ccc3C2=O)CCCN1c1cnc(C(N)=O)c(Nc2cnn(C)c2)n1 [Example D-27, 5-[(2R,3R)-3-(5-bromo-1-oxo-2,3-dihydro-1H-isoindol-2-yl)-2-methylpiperidin-1-yl]-3-[(1-methyl-1H-pyrazol-4-yl)amino]pyrazine-2-carboxamide] | ≤ 0.01 µM | 0.1 to 1 µM
20 | CN(C)C(=O)N1CC[C@@H]2[C@H]1CCCN2c1cnc(C(N)=O)c(Nc2cnn(C)c2)n1 (racemic) [Example D-50, (racemic)-cis-5-[1-(dimethylcarbamoyl)-octahydro-1H-pyrrolo[3,2-b]pyridin-4-yl]-3-[(1-methyl-1H-pyrazol-4-yl)amino]pyrazine-2-carboxamide] | 0.1 to 1 µM | 1 to 10 µM
21 | C[C@@H]1[C@H](N2CCN(C)C2=O)CCCN1c1cnc(C(N)=O)c(Nc2ccc(C3(C)CCN(C4CC4)CC3)cc2)n1 [Example D-38, 3-{[4-(1-cyclopropyl-4-methylpiperidin-4-yl)phenyl]amino}-5-[(2R,3R)-2-methyl-3-(3-methyl-2-oxoimidazolidin-1-yl)piperidin-1-yl]pyrazine-2-carboxamide] | 0.01 to 0.1 µM | 0.01 to 0.1 µM
